Data published in publication PMC8961646, “Fibroblast Activation Protein Specific Optical Imaging in Non-Small Cell Lung Cancer” (Frontiers in Oncology, 2022).
Non-standard residues stand in square brackets, D forms with d. Residues, ends and D or L forms follow the SMILES beside them. *: point of attachment. 5FAM = O=C1OC2(c3ccc(O)cc3Oc3cc(O)ccc32)c2ccc(C(=O)*)cc21; MethylRed = CN(C)c1ccc(/N=N/c2ccccc2C(=O)*)cc1; AEEA = NCCOCCOCC(=O)O; βAla = NCCC(=O)O

Key:
rhFAP = biological target: T1, rhFAP (Homo sapiens, UniProt Q12884); experiment: Probe cleavage by recombinant human FAP (fluorescence plate assay, MALDI confirmation); type: biochemical; conditions: probe 5 µM; for Cleavage by rhFAP (fluorescence signal): rhFAP 0.1 µg/ml, TRIS buffer (pH 7.5), 20 µl, read 480/530 nm, n=3 run in triplicate; for FAP specificity (over PREP): rhFAP compared with rhPREP, each 0.1 µg/ml
T1 construct: purchased R&D Systems
T1 sequence (Q12884 26-760 limits assumed): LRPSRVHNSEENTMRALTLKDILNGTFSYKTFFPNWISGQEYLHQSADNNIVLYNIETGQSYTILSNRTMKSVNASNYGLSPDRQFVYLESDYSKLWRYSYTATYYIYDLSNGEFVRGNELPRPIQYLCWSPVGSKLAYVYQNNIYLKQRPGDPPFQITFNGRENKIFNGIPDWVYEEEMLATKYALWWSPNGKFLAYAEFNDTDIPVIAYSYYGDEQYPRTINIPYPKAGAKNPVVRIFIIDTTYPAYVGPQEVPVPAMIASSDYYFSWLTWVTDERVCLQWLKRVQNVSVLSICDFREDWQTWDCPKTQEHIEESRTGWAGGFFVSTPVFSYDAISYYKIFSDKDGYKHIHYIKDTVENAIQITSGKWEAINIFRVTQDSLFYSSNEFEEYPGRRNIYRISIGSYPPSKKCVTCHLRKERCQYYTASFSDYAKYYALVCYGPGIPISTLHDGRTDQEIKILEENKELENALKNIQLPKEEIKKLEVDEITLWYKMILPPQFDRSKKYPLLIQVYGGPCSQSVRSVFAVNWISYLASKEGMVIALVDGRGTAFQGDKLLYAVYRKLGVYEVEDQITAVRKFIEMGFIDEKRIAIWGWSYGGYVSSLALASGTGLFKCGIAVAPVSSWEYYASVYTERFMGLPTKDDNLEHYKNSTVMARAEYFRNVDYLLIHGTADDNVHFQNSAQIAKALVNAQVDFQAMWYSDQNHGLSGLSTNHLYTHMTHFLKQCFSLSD

rhPREP = biological target: T2, rhPREP (Homo sapiens, UniProt P48147); experiment: Probe cleavage by recombinant human PREP (fluorescence plate assay, MALDI confirmation); type: biochemical; conditions: probe 5 µM, rhPREP 0.1 µg/ml, TRIS buffer pH 7.5, read 480/530 nm, n=3 run in triplicate
T2 construct: purchased R&D Systems
T2 sequence (P48147 1-710): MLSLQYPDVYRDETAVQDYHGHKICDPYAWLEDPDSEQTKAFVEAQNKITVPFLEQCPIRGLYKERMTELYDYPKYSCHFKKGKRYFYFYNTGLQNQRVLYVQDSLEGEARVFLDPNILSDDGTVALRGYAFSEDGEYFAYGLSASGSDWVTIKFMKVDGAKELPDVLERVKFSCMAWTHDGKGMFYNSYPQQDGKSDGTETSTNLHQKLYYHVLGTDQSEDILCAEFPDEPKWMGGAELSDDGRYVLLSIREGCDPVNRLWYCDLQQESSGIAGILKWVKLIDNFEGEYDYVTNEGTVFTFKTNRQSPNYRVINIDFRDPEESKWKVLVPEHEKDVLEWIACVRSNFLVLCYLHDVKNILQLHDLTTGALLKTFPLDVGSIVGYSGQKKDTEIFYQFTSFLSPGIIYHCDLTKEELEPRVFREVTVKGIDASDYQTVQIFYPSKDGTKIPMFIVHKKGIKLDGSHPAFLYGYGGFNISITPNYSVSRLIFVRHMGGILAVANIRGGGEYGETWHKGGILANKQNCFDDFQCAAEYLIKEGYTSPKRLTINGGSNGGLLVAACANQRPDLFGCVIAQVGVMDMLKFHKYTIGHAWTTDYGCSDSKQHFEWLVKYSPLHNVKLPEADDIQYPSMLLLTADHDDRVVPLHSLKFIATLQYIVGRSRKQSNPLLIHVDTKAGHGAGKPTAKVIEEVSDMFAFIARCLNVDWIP

rhDPPIV = rhDPPIV (Homo sapiens, UniProt P27487); experiment: Probe cleavage by recombinant human DPP-IV (exopeptidase activity); conditions: probe 5 µM, rhDPPIV 0.1 µg/ml, TRIS buffer pH 7.5, read 480/530 nm, n=3 run in triplicate
Description: Recombinant human enzymes [rhFAP (R&D Systems), rhPREP (R&D Systems) and rhDPPIV (Biolegend)] were stored in stocks at -70°C and diluted as required to be used at final concentration of 0.1 µg/ml. Enzymes were aliquoted upon receipt from the supplier and new stocks made from a fresh aliquot as required.
Assays were undertaken in triplicate in blackened 384 well plates on ice prior to spectral reads. […] All wells contained a final volume of 20 µl to include buffers, inhibitors (if used), substrates and recombinant human enzymes (at a concentration of 0.1 µg/ml unless otherwise stated). […] Plates were sealed with an optical plate sealer (Biolegend) and were read in a preheated spectrophotometer (Synergy Biotek) in monochromator-based mode at 380/460 nm for control substrates and 480/530 nm for synthesised FAP probes.

[1] = system: NSCLC patient tissue samples; experiment: Fluorescence intensity and lifetime imaging (FLIM) of ex vivo NSCLC tissue; parameters: species or system human; conditions: Talabostat at a dilution of 1:1000 with FAP3 5 µM, N=5
Description: For imaging solutions, varying concentrations of rhFAP were prepared in blackened eppendorfs and FAP3 to a final concentration of 5µM added and imaged as below. For biological specimens, NSCLC patient tissue samples from surgical resection were used fresh or snap frozen and stored at -80°C until required. Small fragments (approx. 4mm^3) incubated at 37°C in a 96 well plate in phenyl-red free DMEM (Gibco) containing 10% FCS, 1% Penicillin-streptomycin and 1% L-Glutamine. For the tissue fragments to be used as inhibitor controls, we added Talabostat at a dilution of 1:1000. Samples were then imaged using a clinically approved fluorescence lifetime imaging system used in conjunction with an imaging fibre ([30]) providing a 400 x 400 µm field of view. The imaging system incorporates a pulsed supercontinuum laser source, in this case tuned for excitation at 488 nm, with an achromatic confocal laser scanning system and a time-resolved spectrometer. This spectrometer contains a 512 channel single photon avalanche diode (SPAD) sensor ([31]) allowing for the rapid collection of time resolved spectral fluorescence lifetime data. Fluorescence intensity and lifetime images were collected using an image resolution of 160 x 160 pixels over a 498 – 570 nm spectral range with an exposure time of 13 µs per pixel. This led to an imaging rate of ~3 frames per second.
For each condition, the tumour samples were imaged using a fibre placed at the surface of the tissue (baseline), and then again at 10-minute intervals following the additions of equimolar concentrations of probe +/- Inhibitor. For imaging solutions, the fibre was held within the solution and imaged every 5 minutes. Each condition and time-point data for both fluorescence intensity and lifetime were collected. Imaging sequences had non-relevant frames removed, and the entire field of view was analysed. Analysis was undertaken using a bespoke software suite utilising the rapid lifetime determination (RLD) method ([32]). […]

DPP-IV = conditions: cited from earlier work
From the text: As starting point for our study, a peptide sequence previously published within a FAP optical reporter was synthesised (GPGPNQ), which had been determined to be FAP specific over DPP-IV but had not been assessed against PREP ([24]). We synthesised the reported peptide sequence but for FRET pairing we utilised a Carboxyfluorescein (FAM) fluorophore with a Methyl Red quencher ( Figure 1A ) as an alternative to Cy5.5/QSY21. The peptide sequence was synthesized by Fmoc solid-phase peptide synthesis on ChemMatrix resin using Oxyma/DIC as the coupling combination. FAM was incorporated at the N-termi ...

FAP expressing tumours = conditions: murine tumour models, NIR fluorescence; cited from earlier work
From the text: Prior studies investigating FAP as an optical probe target focussed on near infrared (NIR) fluorophores where signal can be detected with minimal intrinsic tissue autofluorescence. Li et al. designed an activatable NIR fluorescent probe (ANPFAP) for FAP which was composed of the NIR dye Cy5.5 and the quencher dye QSY21 which were linked by a peptide sequence which is cleaved specifically by FAP (KGPGPNQC) ([24]). […] Although not developed as an imaging optical ...

Sequence of rhDPPIV (P27487 29-766 limits assumed): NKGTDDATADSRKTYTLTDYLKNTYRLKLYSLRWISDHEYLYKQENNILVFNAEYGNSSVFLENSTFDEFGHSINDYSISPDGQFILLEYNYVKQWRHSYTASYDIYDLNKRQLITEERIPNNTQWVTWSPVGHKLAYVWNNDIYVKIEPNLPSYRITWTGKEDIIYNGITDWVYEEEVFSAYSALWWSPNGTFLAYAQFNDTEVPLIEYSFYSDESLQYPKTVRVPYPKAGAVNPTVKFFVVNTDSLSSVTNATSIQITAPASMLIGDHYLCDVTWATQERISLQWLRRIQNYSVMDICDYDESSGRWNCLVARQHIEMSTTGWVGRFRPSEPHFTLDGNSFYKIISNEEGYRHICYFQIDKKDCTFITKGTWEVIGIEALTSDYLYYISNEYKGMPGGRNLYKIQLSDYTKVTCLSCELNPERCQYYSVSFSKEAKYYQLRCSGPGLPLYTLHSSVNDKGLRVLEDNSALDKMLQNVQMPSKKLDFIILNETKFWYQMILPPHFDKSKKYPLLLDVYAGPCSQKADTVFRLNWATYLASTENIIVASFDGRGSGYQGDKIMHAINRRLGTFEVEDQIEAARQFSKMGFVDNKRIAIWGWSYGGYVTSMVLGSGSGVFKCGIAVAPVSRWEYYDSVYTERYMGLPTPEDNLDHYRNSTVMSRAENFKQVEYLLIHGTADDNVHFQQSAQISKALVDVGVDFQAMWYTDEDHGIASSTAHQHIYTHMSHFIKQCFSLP

Row | Compound | Cleavage by rhFAP (fluorescence signal) (rhFAP) | Cleavage by rhPREP (fluorescence signal) (rhPREP) | FAP specificity (over PREP) (rhFAP) | other results
1 | C[C@H](NC(=O)[C@@H](N)CCCCNC(=O)c1ccccc1/N=N/c1ccc(N(C)C)cc1)C(=O)N1CCC[C@H]1C(=O)N[C@@H](CO)C(=O)N[C@@H](CCCCNC(=O)c1ccc2c(c1)C(=O)OC21c2ccc(O)cc2Oc2cc(O)ccc21)C(=O)NCCOCCOCC(=O)N[C@H](CCCCN)C(=O)NCCOCCOCC(=O)N[C@H](CCCCN)C(=O)NCCOCCOCC(=O)N[C@H](CCCCN)C(N)=O [FAP2AAla] (H-K(MethylRed)APSK(5FAM)[AEEA][dK][AEEA][dK][AEEA][dK]-NH2) | FAP activity was absent | demonstrated cleavage by PREP | – | –
2 | C[C@@H](NC(=O)[C@@H](N)CCCCNC(=O)c1ccccc1/N=N/c1ccc(N(C)C)cc1)C(=O)N1CCC[C@H]1C(=O)N[C@@H](CO)C(=O)N[C@@H](CCCCNC(=O)c1ccc2c(c1)C(=O)OC21c2ccc(O)cc2Oc2cc(O)ccc21)C(=O)NCCOCCOCC(=O)N[C@H](CCCCN)C(=O)NCCOCCOCC(=O)N[C@H](CCCCN)C(=O)NCCOCCOCC(=O)N[C@H](CCCCN)C(N)=O [FAP2BD-Ala] (H-K(MethylRed)[dA]PSK(5FAM)[AEEA][dK][AEEA][dK][AEEA][dK]-NH2) | reduced signal | – | FAP specificity over PREP | –
3 | CN(C)c1ccc(/N=N/c2ccccc2C(=O)NCCCC[C@H](N)C(=O)N[C@H](CO)C(=O)N2CCC[C@H]2C(=O)N[C@@H](CO)C(=O)N[C@@H](CCCCNC(=O)c2ccc3c(c2)C(=O)OC32c3ccc(O)cc3Oc3cc(O)ccc32)C(=O)NCCOCCOCC(=O)N[C@H](CCCCN)C(=O)NCCOCCOCC(=O)N[C@H](CCCCN)C(=O)NCCOCCOCC(=O)N[C@H](CCCCN)C(N)=O)cc1 [FAP2CD-Ser] (H-K(MethylRed)[dS]PSK(5FAM)[AEEA][dK][AEEA][dK][AEEA][dK]-NH2) | highest rate of cleavage | without PREP cleavage | FAP specificity over PREP | Cleavage by rhFAP (fluorescence signal) (rhFAP; listed as D-Ser): reduced signal
4 | C[C@H](O)[C@@H](NC(=O)[C@@H](N)CCCCNC(=O)c1ccccc1/N=N/c1ccc(N(C)C)cc1)C(=O)N1CCC[C@H]1C(=O)N[C@@H](CO)C(=O)N[C@@H](CCCCNC(=O)c1ccc2c(c1)C(=O)OC21c2ccc(O)cc2Oc2cc(O)ccc21)C(=O)NCCOCCOCC(=O)N[C@H](CCCCN)C(=O)NCCOCCOCC(=O)N[C@H](CCCCN)C(=O)NCCOCCOCC(=O)N[C@H](CCCCN)C(N)=O [FAP2DD-Thr] (H-K(MethylRed)[dT]PSK(5FAM)[AEEA][dK][AEEA][dK][AEEA][dK]-NH2) | reduced signal | – | FAP specificity over PREP | –
5 | CN(C)c1ccc(/N=N/c2ccccc2C(=O)NCCCC[C@H](N)C(=O)N[C@H](Cc2ccc(O)cc2)C(=O)N2CCC[C@H]2C(=O)N[C@@H](CO)C(=O)N[C@@H](CCCCNC(=O)c2ccc3c(c2)C(=O)OC32c3ccc(O)cc3Oc3cc(O)ccc32)C(=O)NCCOCCOCC(=O)N[C@H](CCCCN)C(=O)NCCOCCOCC(=O)N[C@H](CCCCN)C(=O)NCCOCCOCC(=O)N[C@H](CCCCN)C(N)=O)cc1 [FAP2ED-Tyr] (H-K(MethylRed)[dY]PSK(5FAM)[AEEA][dK][AEEA][dK][AEEA][dK]-NH2) | loss of FAP activity | – | – | –
6 | CN(C)c1ccc(/N=N/c2ccccc2C(=O)NCCCC[C@H](N)C(=O)NCCC(=O)N2CCC[C@H]2C(=O)N[C@@H](CO)C(=O)N[C@@H](CCCCNC(=O)c2ccc3c(c2)C(=O)OC32c3ccc(O)cc3Oc3cc(O)ccc32)C(=O)NCCOCCOCC(=O)N[C@H](CCCCN)C(=O)NCCOCCOCC(=O)N[C@H](CCCCN)C(=O)NCCOCCOCC(=O)N[C@H](CCCCN)C(N)=O)cc1 [FAP2Fβ-Ala] (H-K(MethylRed)[βAla]PSK(5FAM)[AEEA][dK][AEEA][dK][AEEA][dK]-NH2) | reduced signal | – | FAP specificity over PREP | –
7 | CC(C)[C@H](NC(=O)[C@@H](N)CCCCNC(=O)c1ccccc1/N=N/c1ccc(N(C)C)cc1)C(=O)N[C@H](CO)C(=O)N1CCC[C@H]1C(=O)N[C@@H](CO)C(=O)N[C@@H](CCC(N)=O)C(=O)NCC(=O)N[C@@H](CCCCNC(=O)c1ccc2c(c1)C(=O)OC21c2ccc(O)cc2Oc2cc(O)ccc21)C(=O)NCCOCCOCC(=O)N[C@H](CCCCN)C(=O)NCCOCCOCC(=O)N[C@H](CCCCN)C(=O)NCCOCCOCC(=O)N[C@H](CCCCN)C(N)=O [FAP-sP, reference compound] (H-K(MethylRed)V[dS]PSQGK(5FAM)[AEEA][dK][AEEA][dK][AEEA][dK]-NH2) | – | no rhPREP cleavage | demonstrated FAP specificity | Cleavage by DPP-IV (exopeptidase activity, fluorescence signal) (rhDPPIV): no cleavage
8 | CC(C)[C@H](N)C(=O)N1CCC[C@H]1B(O)O [Talabostat, Val-boroPro, reference compound] | – | – | – | Inhibition of FAP3 intensity and lifetime change in NSCLC tissue [1]: abrogated; IC50 (DPP-IV): 4 nM
9 | KGPGPNQC [ANPFAP] | – | – | – | Signal in FAP expressing tumours (FAP expressing tumours): higher signal
